Source: patent US4530923A, “N-acetamilide, N-(phenoxy-2-propanol)- and N-(phenylamino-2-propanol)-cyclicamines” (Egyt Gyogyszervegyeszeti Gyar, priority 1981, dated 1985)
Where two headings read alike, the source gives them in different places.

Legend:
Auricle [1] = assay: antiarrhythmic activity, electrical fibrillation threshold of auricle, anaesthetized cats; assay type: in vivo; settings: relative to quinidine = 1.00, from ED50 mg/kg, i.v., fibrillation threshold method
Description: (§1) The animals were anaesthetized with chloralose-urethane [50/30 mg/kg, i.v.]. The minimal strength of the current necessary to evoke the ventricular and auricular fibrillo-flutter, respectively, was followed by the method of Szekeres and al. [Szekeres, Mehes and Papp: Brit. J. Pharmacol. 17, 167 (1961); Szekeres and Papp: Experimental Cardiac Arrhythmias and Antiarrhythmic Drugs, Akademiai Kiado, Budapest, 1971; Szekeres and Papp: Experimental Cardiac Arrhythmias, Hdb. Exp. Pharmacol. XVI/3, 131, (1975).
(§2) The therapeutic indices related to the antiarrhythmic activity were calculated on the basis of the LD50 /ED50 ratio, where LD50 is the doses resulting in the death of the 50% of the animals (rats), and ED50 is the dosis provoking a 50% rise in the electrical threshold for fibrillation on rats. The LD50 values were determined on male Wistar rats weighing 180 to 220 g by the method of Litchfield and Wilcoxon [J. Pharmacol. Exp. Ther. 95, 49 (1949)].
(§3) ^+ Relative activity calculated from the antiarrhythmic activity
(§4) [ED50 mg/kg, i.v.] determined on cats by the fibrillation threshold

Ventricle [2] = assay: antiarrhythmic activity, electrical fibrillation threshold of ventricle, anaesthetized cats; assay type: in vivo; settings: relative to quinidine = 1.00, from ED50 mg/kg, i.v., fibrillation threshold method
Description: as §1, §2, §3, §4

[3] = therapeutic index LD50:ED50 related to antiarrhythmic activity on auricle; assay type: in vivo, LD50: male Wistar rats; ED50: cats (b90) / rats (b59); settings: rat, in vivo, iv, ED50 i.v.
Description: as §1, §2
(§5) The i.v. and p.os LD50 values were determined on rats.

[4] = therapeutic index LD50:ED50 related to antiarrhythmic activity on ventricle; assay type: in vivo, LD50: male Wistar rats; ED50: cats (b90) / rats (b59); settings: rat, in vivo, iv; LD50 p.os rats; ED50 i.v.
Description: as §1, §2, §5

Ventricle [5] = assay: as above; assay type: in vivo, LD50: male Wistar rats; ED50: cats (b90) / rats (b59); settings: for Ventricle: Therapeutic index LD50:ED50 /i.v.//i.v./: LD50 i.v. rats
Description: as §1, §2, §5

right auricle = assay: heartelectrophysiological test on isolated rabbit heart preparation, right auricle; settings: Oryctolagus cuniculus, percentage of the original values, read-out: Spontaneous frequency /right auricle/; for inhibition at 0.2 µg/mL: 0.2 mg/l
left auricle = assay: heartelectrophysiological test on isolated rabbit heart preparation, left auricle; settings: Oryctolagus cuniculus, percentage of the original values; for activation at 0.2 µg/mL: 0.2 mg/l; for activation at 0.5 µg/mL: 0.5 mg/l; for activation at 5 µg/mL: 5 mg/l
papillary muscle = assay: heartelectrophysiological test on isolated rabbit heart preparation, papillary muscle; settings: Oryctolagus cuniculus, percentage of the original values; for activation at 0.2 µg/mL: 0.2 mg/l; for activation at 0.5 µg/mL: 0.5 mg/l; for activation at 5 µg/mL: 5 mg/l
[6] = system: isolated rabbit heart preparation; assay: heartelectrophysiological methods on an isolated rabbit heart preparation (summary)
Excerpt: The compounds of Examples 5, 6 and 7, tested by heartelectrophysiological methods on an isolated rabbit heart preparation decrease the spontaneous frequency of right ventricle, increase the electric stimulus threshold, prolong the effective refractory period and also the time of stimulus conduction. The data referring hereto are given in Table II, in the percentage of the original values.

dogs = assay: haemodynamics in dogs anaesthetized with nembutal; assay type: in vivo; settings: nembutal anaesthesia, 0.5 to 2 mg/kg i.v.
Description: On dogs anaesthetized with nembutal (35 mg/kg, i.v.) in an i.v. dosis of 0.5 to 2 mg/kg the compounds slightly decrease the arterial blood pressure. The compounds of Examples 5 and 6 decrease the coronary resistance, improve the oxygenization of the heart muscle, increase the blood flow of the artery femoralis, and the compound of Example 5 increases also the blood flow of arteria carotis.

Auricle [7] = assay: therapeutic index LD50:ED50 related to antiarrhythmic activity on auricle; assay type: in vivo, LD50: male Wistar rats; ED50: cats (b90) / rats (b59)
Description: as §1, §2, §5

[8] = system: nervus ischiadicus of frog; assay: local anaesthetic effect on action potential of nervus ischiadicus of frog
[9] = system: cardiac rhythm disturbances; settings: cited from earlier work
[10] = LD50 i.v. rats, read-out: Auricle: Therapeutic index LD50:ED50 /i.v.//i.v./
[11] = LD50 p.os rats, read-out: Auricle: Therapeutic index LD50:ED50 /p.os//i.v./
[12] = read-out: Effective refractory period /left auricle/
[13] = read-out: Electrical threshold /left auricle/
[14] = read-out: Time of the stimulus-conduction /left auricle/
[15] = read-out: Effective refractory period /papillary muscle/
[16] = read-out: Electrical threshold /papillary muscle/
[17] = ventricle (from Table I), versus quinidine

| Structure (SMILES) | Auricle: Relative activity (Auricle [1]) | Ventricle: Relative activity (Ventricle [2]) | selectivity ratio [3, 10] | selectivity ratio [3, 11] | selectivity ratio [4] | Ventricle: Therapeutic index LD50:ED50 /i.v.//i.v./ (Ventricle [5]) | inhibition at 0.2 µg/mL (right auricle) [%] | activation at 0.2 µg/mL (left auricle; [12]) [%] | activation at 0.2 µg/mL (left auricle; [13]) [%] | activation at 0.2 µg/mL (left auricle; [14]) [%] | activation at 0.2 µg/mL (papillary muscle; [15]) [%] | activation at 0.2 µg/mL (papillary muscle; [16]) [%] | effective refractory period (in words) [6] | electric stimulus threshold (in words) [6] | spontaneous frequency of right ventricle (in words) [6] | time of stimulus conduction (in words) [6] | blood flow of the artery femoralis (dogs) | coronary resistance (dogs) | oxygenization of the heart muscle (dogs) | further results |
| --- | --- | --- | --- | --- | --- | --- | --- | --- | --- | --- | --- | --- | --- | --- | --- | --- | --- | --- | --- | --- |
| Cc1cccc(C)c1OCC(O)CN1CCCCCC1 (stereo not shown) [Example 5, 1-(2,6-dimethylphenoxy)-3-hexamethyleneimino-propanol-2] | 7.14 | 8.04 | 13.3 | 189 | 110 | 7.7 | 4 ± 2 | 10 | 24 | 38 | 9 | 46 | prolong | increase | decrease | prolong | increase | decrease | improve | blood flow of arteria carotis (dogs): increases |
| Cc1cccc(C)c1OCC(O)CN1CCCCCCC1 (stereo not shown) [Example 6, 1-(2,6-dimethylphenoxy)-3-heptamethyleneimino-propanol-2] | 12.50 | 2.80 | 23.9 | 1960 | 229 | 2.8 | 7 ± 1 | 3 | 19 | 15 | 4 | 9 | prolong | increase | decrease | prolong | increase | decrease | improve | therapeutic index related to the supraventricular activity (in words) (Auricle [7]; among the tested compounds): most preferable therapeutic index; therapeutic index related to supraventricular activity (i.v. toxicity), times higher than that of quinidine (Auricle [7]; i.v. LD50 / i.v. ED50, versus quinidine): about 1.8 times; therapeutic index related to supraventricular activity (per os toxicity), times higher than that of quinidine (Auricle [7]; per os LD50 / i.v. ED50, versus quinidine): ~7 times; quotient per os LD50 / i.v. ED50, times higher than that of quinidine (Ventricle [5]; [17]): about 1.6 times; local anaesthetic effect (in words) [8]: strong local anaesthetic effect; local anaesthetic effect, times stronger than that of lidocaine ([8]; versus lidocaine): 2.7 times |
| Cc1cccc(C)c1NCC(O)CN1CCCCCC1 (stereo not shown) [Example 7, 1-hexamethyleneimino-3-(2,6-dimethylanilino)propanol-2] | 8.54 | 7.85 | 20.7 | 439 | 209 | 9.9 | – | – | – | – | – | – | prolong | increase | decrease | prolong | – | – | – | quotient i.v. LD50 / i.v. ED50, times higher than that of quinidine (Ventricle [5]; [17]): about 1.4 times; inhibition at 0.5 µg/mL (right auricle; 0.5 mg/l): 9 ± 1%; activation at 0.5 µg/mL (left auricle; [12]): 11%; activation at 0.5 µg/mL (left auricle; [13]): 25%; activation at 0.5 µg/mL (left auricle; [14]): 28%; activation at 0.5 µg/mL (papillary muscle; [15]): 10%; activation at 0.5 µg/mL (papillary muscle; [16]): 29% |
| C=C[C@H]1C[N@@]2CC[C@H]1C[C@@H]2[C@@H](O)c1ccnc2ccc(OC)cc12 [Quinidine, reference compound] | 1.00 | 1.00 | 13.4 | 280 | 145 | 6.9 | – | – | – | – | – | – | – | – | – | – | – | – | – | inhibition at 5 µg/mL (right auricle; 5 mg/l): 12 ± 1%; activation at 5 µg/mL (left auricle; [12]): 32%; activation at 5 µg/mL (left auricle; [13]): 120%; activation at 5 µg/mL (left auricle; [14]): 90%; activation at 5 µg/mL (papillary muscle; [15]): 55%; activation at 5 µg/mL (papillary muscle; [16]): 56%; effectiveness in cardiac rhythm disturbances ([9]; Br. Heart J. 38, 381 (1976)): effective primarily in the treatment of arrhythmia, auricular flutter, fibrillation and paroxysmal tachycardia; toxic side-effects ([9]; background literature): induce subjective hyperaesthesia, create vision problems, headache and nausea, and give rise to grave asthmatic symptoms |
